Data on 15 compounds can be found in patent US11447475B2, “Isoxazole N-linked carbamoyl cyclohexyl acids as LPA antagonists” (BRISTOL-MYERS SQUIBB COMPANY, priority 2017, dated 2022).

One test relates to IPF patients. The following applies: 26-week clinical trial in IPF patients; cited from earlier work.
Another test has as its target T1, human LPA1 (Homo sapiens, UniProt Q92633).
T1 construct: expressed in transfected cells; host or cells: Chinese hamster ovary (CHO) cells
As to the kind of experiment: LPA1 functional antagonist assay (calcium flux). The following applies: read-out: hLPA1 IC50. The format is cell-based. On the procedure:
The effectiveness of compounds of the present invention as LPA1 inhibitors can be determined in an LPA1 functional antagonist assay as follows:
Chinese hamster ovary cells overexpressing human LPA1 were plated overnight (15,000 cells/well) in poly-D-lysine coated 384-well microplates (Greiner bio-one, Cat #781946) in DMEM/F12 medium (Gibco, Cat #11039). Following overnight culture, cells were loaded with calcium indicator dye (AAT Bioquest Inc, Cat #34601) for 30 minutes at 37° C. The cells were then equilibrated to room temperature for 30 minutes before the assay. Test compounds solubilized in DMSO were transferred to 384 well non-binding surface plates (Corning, Cat #3575) using the Labcyte Echo acoustic dispense and diluted with assay buffer [1×HBSS with calcium/magnesium (Gibco Cat #14025-092), 20 mM HEPES (Gibco Cat #15630-080) and 0.1% fatty acid free BSA (Sigma Cat #A9205)] to a final concentration of 0.5% DMSO. Diluted compounds were added to the cells by FDSS6000 (Hamamatsu) at final concentrations ranging from 0.08 nM to 5 μM. and were then incubated for 20 min at room temperature at which time LPA (Avanti Polar Lipids Cat #857130C) was added at final concentrations of 10 nM to stimulate the cells. […] IC50 values were determined by fitting data to a 4-parameter logistic equation (GraphPad Prism, San Diego Calif.).

The subject of the next test is nerve-injured mice. The following applies: pretreatment; cited from earlier work.
For test [1], the system named is human foetal lung fibroblasts. The following applies: induced by BAL obtained from IPF patients; cited from earlier work.
In another test the test system is UUO mice. Particulars: UUO mice treated with the antagonist, compared with LPA1 (−/−) mice; cited from earlier work.
The subject of test [2] is highly peritoneal metastatic pancreatic cancer cell line. The following applies: LPA-induced and ascites-induced; cited from earlier work.
Test [3] concerns mouse epithelial renal cell line, MCT. Particulars: LPA treatment of MCT cells, co-treatment with antagonist; cited from earlier work.
The subject of test [4] is pancreatic cancer cell lines. Particulars: in response to LPA and peritoneal fluid (ascites) from pancreatic cancer patients; cited from earlier work.
[5] abbreviates: CHO cells overexpressing human LPA1, inhibition of calcium flux induced by 10 nM LPA.

pIC50: −log10 of the molar value. Where two headings read alike, the source gives them in different places.

T1 sequence (Q92633 whole entry): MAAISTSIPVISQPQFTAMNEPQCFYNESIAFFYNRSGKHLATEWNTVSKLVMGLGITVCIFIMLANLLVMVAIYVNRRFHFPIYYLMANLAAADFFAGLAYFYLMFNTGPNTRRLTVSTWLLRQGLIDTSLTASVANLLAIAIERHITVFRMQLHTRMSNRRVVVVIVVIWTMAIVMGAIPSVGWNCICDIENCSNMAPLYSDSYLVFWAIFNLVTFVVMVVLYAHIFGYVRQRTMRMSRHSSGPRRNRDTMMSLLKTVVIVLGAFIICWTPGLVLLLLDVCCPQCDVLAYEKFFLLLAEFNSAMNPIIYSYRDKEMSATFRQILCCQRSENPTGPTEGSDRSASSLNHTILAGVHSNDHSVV

On to `Cc1noc(-c2ccc(-c3ccc(C4(C(=O)O)CC4)cc3)cc2)c1NC(=O)O[C@H](C)c1ccccc1` [BMS-986020], for which the “rate of FVC (forced vital capacity) decline” value in the test with IPF patients is on record as “significantly reduce”.
Take `Cc1nc(-c2onc(C)c2CNS(=O)(=O)Cc2ccccc2)ccc1O[C@H]1CCC[C@H](C(=O)O)C1` [Example 51, (1S,3S)-3-((2-methyl-6-(3-methyl-4-(((phenylmethyl)sulfonamido)methyl) Isoxazol-5-yl)pyridin-3-yl)oxy)cyclohexane-1-carboxylic Acid]: at human LPA1 (setting [5]), the pIC50 was 6.21.
Same read-out and setting: the value for `Cc1noc(-c2ccc(O[C@H]3CCC[C@H](C(=O)O)C3)cn2)c1CNS(=O)(=O)CCc1ccccc1` [Example 53, (1S,3S)-3-((6-(3-methyl-4-(((2-phenylethyl)sulfonamido)methyl)isoxazol-5-yl) Pyridin-3-yl)oxy)cyclohexane-1-carboxylic Acid] was 8.40.
For `Cc1noc(-c2ccc(O[C@H]3CCC[C@H](C(=O)O)C3)cn2)c1CNC(=O)CCc1ccccc1` [Example 54, (1S,3S)-3-((6-(3-methyl-4-((3-phenylpropanamido)methyl)isoxazol-5-yl)pyridin-3-yl)oxy)cyclohexane-1-carboxylic Acid], the negative-log IC50 (pIC50) on human LPA1 was 6.59.
For `CCC[C@H](C)OC(=O)NCc1c(C)noc1-c1ccc(O[C@H]2CCC[C@H](C(=O)O)C2)cn1` [Example 55, (1S,3S)-3-((6-(3-methyl-4-((((((S)-pentan-2-yl)oxy)carbonyl)amino) Methyl) Isoxazol-5-yl)pyridin-3-yl)oxy)cyclohexane-1-carboxylic Acid], the pIC50 at human LPA1 was 7.64.
The same measure, in the same setting: the value for `CCC[C@@H](C)OC(=O)NCc1c(C)noc1-c1ccc(O[C@H]2CCC[C@H](C(=O)O)C2)cn1` [Example 58] was 7.43; that for `Cc1noc(-c2ccc(O[C@H]3CCC[C@H](C(=O)O)C3)cn2)c1CNC(=O)OC1CC(C)(C)C1` [Example 59] was 7.96.
For `CCCCOC(=O)N(C)Cc1c(C)noc1-c1ccc(O[C@H]2CCC[C@H](C(=O)O)C2)cn1` [Example 60], the pIC50 on human LPA1 is 7.48.
Turning to `CC[C@H](C)COC(=O)NCc1c(C)noc1-c1ccc(O[C@H]2CCC[C@H](C(=O)O)C2)cn1` [Example 61], the pIC50 at human LPA1 is 8.10.
For the compound `Cc1noc(-c2ccc(O[C@H]3CCC[C@H](C(=O)O)C3)cn2)c1CNC(=O)OCCC1CC1` [Example 62], the pIC50 at human LPA1 is 7.11.
`Cc1noc(-c2ccc(O[C@H]3CCC[C@H](C(=O)O)C3)cn2)c1CNC(=O)OCC1CC1(C)C` (stereo partly shown) [Example 63]: the pIC50 on human LPA1 was 7.80.
`Cc1noc(-c2ccc(O[C@H]3CCC[C@H](C(=O)O)C3)cn2)c1CN(C)C(=O)OCc1ccccc1` [Example 64]: the pIC50 at human LPA1 is 7.85.
With `CCCCOC(=O)NCc1c(C)noc1-c1ccc(O[C@H]2CCC[C@H](C(=O)O)C2)cn1` [Example 65], the pIC50 at human LPA1 is 7.85.
Turning to `C[C@@H](N)[C@H]1CC[C@H](C(=O)Nc2ccncc2)CC1` [Example Y-27632], the allodynia and hyperalgesia result in the test on nerve-injured mice was “completely abolished”.
Take `Cc1noc(-c2ccc(CSCCC(=O)O)cc2)c1NC(=O)OC(C)c1ccccc1Cl` (stereo not shown) [Ki16425]: in test [1], the “chemotaxis of human foetal lung fibroblasts” value is recorded as “blocked”. For the same compound, in the test with UUO mice, the “development of renal fibrosis” value was “closely resembled the profile of LPA1 (−/−) mice”. Also, the invasion activity entry in test [2] is on record as “blocked”. Also, the “induction of CTGF expression” value in test [3] is recorded as “almost completely suppressed”. Besides, the in vitro migration entry in test [4] is on record as “effectively blocked”.

By pIC50 is commonly meant −log10 of the IC50, conventionally taken in molar units.
